Read-outs that look alike come from different tables or passages of the source.
What was measured:
Mouse TMEM16A = target: T1, Mouse TMEM16A (Mus musculus, UniProt Q8BHY3); test: Whole-cell concentration-jump protocol separating A9C block and activation, 300 nM [Ca2+]i; type: cell-based; conditions: for Ki: read-out: K i(0); for I a/I 0 for activation / fractional inhibition (I b/I 0): 30 μM [A9C]ext, +70 mV; for EC50 / IC50: [A9C]ext; for EC50: read-out: EC50 (b) activation; for IC50: read-out: IC50 (a) inhibition
T1 construct: expressed in transfected cells; host or cells: HEK-293T
T1 sequence (Q8BHY3 1-960): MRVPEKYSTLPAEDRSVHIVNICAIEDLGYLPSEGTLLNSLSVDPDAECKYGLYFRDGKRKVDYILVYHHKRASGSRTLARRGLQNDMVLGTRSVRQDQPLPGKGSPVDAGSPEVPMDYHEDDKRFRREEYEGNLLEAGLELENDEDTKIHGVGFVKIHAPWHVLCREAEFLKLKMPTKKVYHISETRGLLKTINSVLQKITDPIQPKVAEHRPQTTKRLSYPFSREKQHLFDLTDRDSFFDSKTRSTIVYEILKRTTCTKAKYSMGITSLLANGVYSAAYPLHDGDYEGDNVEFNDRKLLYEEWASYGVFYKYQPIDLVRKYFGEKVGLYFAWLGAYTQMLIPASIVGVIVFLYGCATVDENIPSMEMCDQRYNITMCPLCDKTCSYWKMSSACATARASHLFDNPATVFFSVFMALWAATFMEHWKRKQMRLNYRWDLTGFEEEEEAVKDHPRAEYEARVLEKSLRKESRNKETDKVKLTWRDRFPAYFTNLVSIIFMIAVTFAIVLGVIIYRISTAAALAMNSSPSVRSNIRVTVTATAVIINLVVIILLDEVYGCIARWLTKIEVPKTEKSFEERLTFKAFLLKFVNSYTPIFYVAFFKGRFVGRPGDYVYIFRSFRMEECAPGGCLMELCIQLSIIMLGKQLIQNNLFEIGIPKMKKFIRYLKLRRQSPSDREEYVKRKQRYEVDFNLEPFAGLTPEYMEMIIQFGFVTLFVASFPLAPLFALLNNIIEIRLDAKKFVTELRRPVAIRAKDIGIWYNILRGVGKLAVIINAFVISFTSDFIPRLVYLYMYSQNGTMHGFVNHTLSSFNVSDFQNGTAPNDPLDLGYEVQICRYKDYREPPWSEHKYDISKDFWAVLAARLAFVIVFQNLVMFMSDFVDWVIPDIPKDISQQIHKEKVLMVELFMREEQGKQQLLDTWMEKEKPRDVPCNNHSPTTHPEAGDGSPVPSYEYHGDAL
Description: TMEM16A currents were measured with the whole‐cell or inside‐out patch configuration of the patch‐clamp technique as detailed in the Supporting Information. The exchange of solutions was achieved by using a local perfusion system consisting of eight tubes of 1.2 mm diameter in which the tip of the patch pipette was inserted. In some experiments, ultra‐rapid (<50 ms) changes in A9C concentration ([A9C]) (‘concentration jumps’) were achieved using a computer‐controlled perfusion system (Warner Instruments, Hamden, CT, USA).
The relationship between [A9C] and TMEM16A current inhibition was obtained by measuring the currents at the end of 250 ms V m steps from +20 to +120 mV in 20 mV increments elicited every 2 s from a holding V m of −70 mV. TMEM16A currents measured in the presence of A9C (I b) were normalized to currents measured in the absence of A9C (I 0) and plotted against [A9C]. The concentration–response curves obtained were fit with the Hill equation of the form: (1) Ib/Io=1/1+A9C/Ki^γ,
where K i is the apparent A9C dissociation constant from the inhibitory site and γ is the coefficient of cooperativity (Hill coefficient).
The dose–response curves for activation by A9C were fitted with a modified Hill equation of the form: (2) Ia/Io=1+Amax−1/1+A9C/Kd^h,
where I a is the current in the presence of A9C, A max is the maximal current activation, K d is the apparent A9C dissociation constant from the activating site and h is the coefficient of cooperativity (Hill coefficient).
The relationships between the K i or K d and V m were fitted with the Woodhull equation (Woodhull, 1973): (3) Kx=Kx0exp−δxzFVm/RT.
The subscript ‘x’ stands for either ‘i’ or ‘d’. Thus, K i(0) or K d(0) are the apparent A9C dissociation constants from the inhibitory or activating site at 0 mV, z is the A9C electric valence (−1), δ i or δ d is the fraction of the V m sensed by A9C when bound to the inhibitory or activating site, F is Faraday's constant, R is the universal gas constant and T is the absolute temperature.
To study the activating effect of extracellular A9C on TMEM16A currents in isolation from A9C‐mediated inhibition, the following stimulation protocol was used. Whole‐cell currents were measured in response to a constant V m of +70 mV and in the presence of 300 nM [Ca^2+]i. Under these recording conditions and in the absence of extracellular A9C, the TMEM16A current remained at a constant amplitude (Figure 5A). When A9C was rapidly applied to the bath solution (concentration jump), the current amplitude rapidly declined before increasing to a new steady‐state level (Figure 5A and 5B). As A9C was removed, a dramatic increase in current was observed followed by a rapid return of the current to the level measured in the absence of A9C (Figure 5A and 5B). […] Rapid washout of A9C led to the fast relief of channel block, while the allosteric activating effect appeared to persist. Thus, the inhibitory effect of A9C was estimated by back‐extrapolating the current amplitude (I b) to the point when the drug was added. The current activation (I a) was measured via back‐extrapolation of the transient current spike observed upon drug washout.
Each cell was exposed to various [A9C]ext, and the extent of blockage at each concentration expressed as I b/I 0. The extent of current activation at each [A9C]ext was assessed as I a/I 0.
To determine if the activating effect of [A9C]ext on the TMEM16A current is V m‐dependent, experiments similar to those described above were performed at constant V m of +10 and +40 mV (Figure 5C). From the average data presented in Figure 5C and Table 2, it can be concluded that both inhibition and activation are V m‐dependent.
As outlined in the previous section, the current inhibition and activation induced by extracellular A9C presented a very similar degree of V m‐dependence. […]

human TMEM16A = target: human TMEM16A; design: method as in Bradley et al. (2014); conditions: +80 mV, ref Bradley et al. (2014); cited from earlier work
Xenopus laevis TMEM16A = conditions: +80 mV, ref Reyes et al. (2015); cited from earlier work
[1] = high (154 mM) [Cl−]ext, 300 nM [Ca2+]i
[2] = low (34 mM) [Cl−]ext, 300 nM [Ca2+]i

Ki (Mouse TMEM16A; 300 nM [Ca2+]i (rounded in Discussion)): ~8.4 mM
δ d (Mouse TMEM16A; 300 nM [Ca2+]i, Woodhull fit): 0.66 ± 0.03
δ i (Mouse TMEM16A; 300 nM [Ca2+]i, Woodhull fit): 0.68 ± 0.03
Kd (Mouse TMEM16A; 300 nM [Ca2+]i, extracellular A9C, Woodhull fit, read-out: K d(0) (apparent dissociation constant from activating site at 0 mV)): 8.95 ± 0.378 mM
Ki (Mouse TMEM16A; 300 nM [Ca2+]i, extracellular A9C, Woodhull fit): 8.37 ± 0.372 mM
I a/I 0 for activation (Mouse TMEM16A; [1]): 2.0 ± 0.1
fractional inhibition (I b/I 0) (Mouse TMEM16A; [1]): 0.70 ± 0.02
I a/I 0 for activation (Mouse TMEM16A; [2]): 8.2 ± 1.1
fractional inhibition (I b/I 0) (Mouse TMEM16A; [2]): 0.46 ± 0.06
h (b) Hill coefficient (activation) (Mouse TMEM16A; V m 10 mV, 300 nM [Ca2+]i): 1.1 ± 0.1 (n = 9)
γ (a) Hill coefficient (inhibition) (Mouse TMEM16A; V m 10 mV, 300 nM [Ca2+]i): 0.4 ± 0.1 (n = 9)
EC50 (Mouse TMEM16A; V m 10 mV, 300 nM [Ca2+]i): 5.23 ± 0.582 mM
IC50 (Mouse TMEM16A; V m 10 mV, 300 nM [Ca2+]i): 4.71 ± 0.478 mM
h (b) Hill coefficient (activation) (Mouse TMEM16A; V m 40 mV, 300 nM [Ca2+]i): 1.2 ± 0.1 (n = 11)
γ (a) Hill coefficient (inhibition) (Mouse TMEM16A; V m 40 mV, 300 nM [Ca2+]i): 0.4 ± 0.1 (n = 11)
EC50 (Mouse TMEM16A; V m 40 mV, 300 nM [Ca2+]i): 1.12 ± 0.126 mM
IC50 (Mouse TMEM16A; V m 40 mV, 300 nM [Ca2+]i): 0.849 ± 0.14 mM
h (b) Hill coefficient (activation) (Mouse TMEM16A; V m 70 mV, 300 nM [Ca2+]i): 1.1 ± 0.1 (n = 11)
γ (a) Hill coefficient (inhibition) (Mouse TMEM16A; V m 70 mV, 300 nM [Ca2+]i): 0.4 ± 0.1 (n = 11)
EC50 (Mouse TMEM16A; V m 70 mV, 300 nM [Ca2+]i): 0.44 ± 0.069 mM
IC50 (Mouse TMEM16A; V m 70 mV, 300 nM [Ca2+]i): 0.171 ± 0.021 mM
electric distance of activating binding site (δ d) (Mouse TMEM16A; Woodhull analysis, rounded): ~ 0.6
Compound: O=C(O)c1c2ccccc2cc2ccccc12 [A9C, Anthracene‐9‐carboxylic acid]
Ki (human TMEM16A): ~0.06 mM
Ki (Xenopus laevis TMEM16A): ~0.09 mM

— PMC4728427, “Mechanism of allosteric activation of TMEM16A/ANO1 channels by a commonly used chloride channel blocker” (British Journal of Pharmacology, 2016)
